Data from patent publication US10654838B2, “Aminopyridine compounds useful as inhibitors of protein prenylation” (INSTITUT NATIONAL DE LA SANTE ET DE LA RECHERCHE MEDICALE …, priority 2014, dated 2020).

Assays:
HDJ2 = test: Western blot analysis of HDJ2 farnesylation; format: cell-based, human
prelamin A = test: Western immunoblotting of prelamin A; format: cell-based, human; settings: HGPS MSCs, optimal concentration
Protocol: Whole-cell lysates of MSC were collected, separated by SDS-PAGE, and transferred onto PVPF membrane by liquid transfer method. Blots were blocked in 10% skim milk (Bio-Rad) in tween 0.1% tris-buffered saline (TTBS) 1× one hour at room temperature. The primary antibodies used were a mouse anti-lamins A/C 1:200 (Millipore, JOL2), a rabbit anti-prelamin A 1/100 (ANTOO45, Diatheva) and a β-actin 1/200000 (Sigma). Membranes were incubated during the night at 4° C. Antigen-antibody binding was detected using horseradish peroxidaseconjugated species-specific secondary antibodies (GE-Healthcare, Little Chalfont, UK) followed by enhanced chemiluminescence Western blotting detection reagents (Perkin-Elmer, Waltham, USA).

HGPS MSCs = test: Nuclear shape abnormalities (lamin A/C immunostaining); format: cell-based, human; settings: 48 h, lamin A/C staining
Protocol: In the 4-steps protocol, cells were fixed in 4% paraformaldehyde (15 minutes, room temperature) before permeabilization and blocking in PBS supplemented with 0.1% triton X-100 and 1% BSA (Sigma-Aldrich, St. Louis, USA). Primary antibodies were incubated one hour at room temperature in blocking buffer. Antibodies included mouse anti-lamins A/C (clone JOL2, Millipore, Billerica, USA), rabbit anti-prelamin A (ANTOO45, Diatheva) and anti-Ki67 (clone Ki-S5, MAB4190, Millipore, Billerica, USA). Cells were stained with the species-specific fluorophore-conjugated secondary antibody (Invitrogen) (one hour, room temperature) and nuclei were visualized with Hoechst 33342.

[1] = system: prelamin A farnesylation (nuclear localization of prelamin A) in HGPS MSCs; test: Prelamin A localization cell-based assay; set-up: species or system human; settings: for EC50: Homo sapiens, 48 h treatment, dose-response
Protocol: 2000 HGPS MSCs were plated in black 384-well clear-bottom plates (Corning). After 48 h of drug treatment, cells were fixed in 4% paraformaldehyde (15 minutes, room temperature). Permeabilization, blocking and primary hybridization steps were done concomitantly in a PBS solution supplemented with 0.1% triton X-100 and 1% BSA (Sigma-Aldrich, St. Louis, USA) and rabbit anti-prelamin A (ANTOO45, Diatheva) overnight at 4° C. Cells were stained with the species-specific fluorophore-conjugated secondary anti-rabbit antibody (Invitrogen) (one hour, room temperature) and nuclei were visualized with Hoechst 33342. These steps were automated using a washing/staining station (ELx405 Biotek, RapidStak Thermo, Multidrop Labsystems). Prelamin A localization was analyzed with an ayScan VTI HCS Reader (Cellomics). The first channel was used for nucleus identification (Hoechst 33342 staining) and the second one to identify prelamin A staining. Pictures were acquired with a 5× objective in high-resolution camera mode and were analyzed using the Spot Detector bioapplication. The robustness of the assay was evaluated using the Z′ factor calculated as ollows Z′=1−[3(SDP+SDN)/(MP−MN)] where MP and MN correspond to the means of the positive (tipifarnib 1 μM) and negative (DMSO 0.1%) controls, respectively, and SDP and SDN correspond to their standard deviation.
The primary screen was conducted on Biocell 1800 (Agilent). […]
Data analysis of the screening was performed using a customized Hiscreen application (Discngine, Paris, France) connected to Spotfire software (Tibco Co). Screening robustness was evaluated by calculating for each plate the Z'factor on the percentage of prelaminA nuclei parameter. […]
This study was performed on MSCs derived from HGPS iPS cells, differentiated as previously described (Blondel et al., 2014, Stem Cells Transl Med, VOL. 3: 510-519) and used after ten passages of amplification. […] A high throughput immunostaining assay was developed to robustly quantify prelamin A expression and localization in 384-well plates. […]

CCCc1c(C(=O)N2CCN(c3cc(N(C)c4cccc(C)c4)ncn3)CC2)cnn1-c1ccccc1 [Di-AP2, {4-[6-(Methyl-m-tolyl-amino)-pyrimidin-4-yl]-piperazin-1-yl}-(1-phenyl-5-propyl-1H-pyrazol-4-yl)-methanone]
unfarnesylated form of HDJ2 (HDJ2): increase of the unfarnesylated form of the protein
prelamin A level (Western blot) (prelamin A): increased
rescue of nuclear shape abnormalities (HGPS MSCs): restored significantly

Cc1cccc(CN2CCN(c3nccc(C(C#N)c4ccccn4)n3)CC2)c1 (stereo not drawn) [Mono-AP21, {2-[4-(3-Methyl-benzyl)-piperazin-1-yl]-pyrimidin-4-yl}-pyridin-2-yl-acetonitrile]
EC50 [1]: 1500 nM

CCOC(=O)CN1CCN(c2nccc(C(C#N)c3ccccn3)n2)CC1 (stereo not drawn) [Mono-AP25, {4-[4-(Cyano-pyridin-2-yl-methyl)-pyrimidin-2-yl]-piperazin-1-yl}-acetic acid ethyl ester]
efficiency on prelamin A farnesylation (in words) ([1]; dose response): decrease in efficiency

N#CC(c1ccccn1)c1ccnc(N2CCN(Cc3cccc(F)c3)CC2)n1 (stereo not drawn) [Mono-AP28, {2-[4-(3-Fluoro-benzyl)-piperazin-1-yl]-pyrimidin-4-yl}-pyridin-2-yl-acetonitrile]
EC50 [1]: 2000 nM
